Like-named read-outs stand apart in the source and are kept apart here.
Tests used:
Assay in all cases: NCI human tumor cell line panel growth inhibition
Type in all cases: cell-based
[1] = tested on: COLO-205 colon cancer cells; settings: Homo sapiens
U251 CNS cancer cells = settings: Homo sapiens, U-251, read-out: Log10 GI50 (converted)
A-498 renal cancer cells = settings: Homo sapiens, A498, read-out: Log10 GI50 (converted)
[2] = tested on: T-47D breast cancer cells; settings: T47D, read-out: Log10 GI50 (converted)
Protocol: The assay was carried out in 96-well microtiter plates. The MTT assay is based on the production of a dark blue formazan product by dehydrogenase in the mitochondria of live tumor cells after exposure to drug for 6 days [M. C. […] The SRB assay is based on the binding of the anionic group to the basic amino acid residues of cellular proteins after exposure of tumor cells to drug for 2 days [P. Skehan, R. Storeng, D. Scudiero, A. Monks, J. McMahon, D. Vistica, J. T. Warren, H. Bohesch, S. Kenney and M. R. Boyd, J. Nat.

ACHN renal cancer cells = settings: read-out: Log10 GI50 (converted)
[3] = tested on: OVCAR-5 ovarian cancer cells; settings: Homo sapiens, read-out: Log10 GI50 (converted)
SNB-75 CNS cancer cells = settings: Homo sapiens, read-out: Log10 GI50 (converted)
HT29 colon cancer cells = settings: Homo sapiens, HT-29, read-out: Log10 GI50 (converted)
[4] = tested on: RXF-393 renal cancer cells; settings: Homo sapiens, read-out: Log10 GI50 (converted)
SF-295 CNS cancer cells = settings: read-out: Log10 GI50 (converted)
LOX IMVI melanoma cells = settings: read-out: Log10 GI50 (converted)
[5] = tested on: NCI-H460 lung cancer cells; settings: Homo sapiens, read-out: Log10 GI50 (converted)
[6] = tested on: HCT-15 colon cancer cells; settings: Homo sapiens, read-out: Log10 GI50 (converted)
[7] = tested on: HCC-2998 colon cancer cells; settings: Homo sapiens, read-out: Log10 GI50 (converted)
[8] = tested on: OVCAR-8 ovarian cancer cells; settings: Homo sapiens, read-out: Log10 GI50 (converted)
Protocol: (§1) The first screen measures the cytotoxicity against a panel of sixty different human tumor cell lines. This assay provides data regarding the general cytotoxicity of an individual compound.
(§2) The length of a bar is indicative of differential cytotoxicity against a specific type of tumor cells or tumor panels.
(§3) The antitumor cytotoxicity of the thiophene compounds tested in the first two in vitro assays was measured by a microculture assay using either 3-(4,5-dimethylthiazol-2-yl)-2,5-diphenyltetrazolium bromide (MTT) or sulforhodamine B (SRB). [M. R. Boyd in "Principles and Practices of Oncology," V. T. DeVita, Jr., S. Hellman and S. A. Rosenberg (Eds.), Vol. 3, PPO Updates, Number 10, 1989.] This assay has an advantage over in vivo assay in that results are obtained within a week as opposed to several months. The assay was carried out in 96-well microtiter plates. The MTT assay is based on the production of a dark blue formazan product by dehydrogenase in the mitochondria of live tumor cells after exposure to drug for 6 days [M. C. Alley, D. A. Scudiero, A. Monks, M. L. Hursey, M. J. Czerwinski, D. L. Fine, B. J. Abbott, J. G. Mayo, R. H. Shoemaker and M. R. Boyd, Cancer Res., 48, 589, 1988.] Thus, only live cells are stained and can be measured at 570 nm. The SRB assay is based on the binding of the anionic group to the basic amino acid residues of cellular proteins after exposure of tumor cells to drug for 2 days [P. Skehan, R. Storeng, D. Scudiero, A. Monks, J. McMahon, D. Vistica, J. T. Warren, H. Bohesch, S. Kenney and M. R. Boyd, J. Nat. Cancer Inst., 82, 1107, 1990.] Thus, the total protein (viability) can be measured at 564 nm.

UACC-257 melanoma cells = settings: Homo sapiens, read-out: Log10 GI50 (converted)
[9] = tested on: NCI-H226 lung cancer cells; settings: Homo sapiens, read-out: Log10 GI50 (converted)
MALME-3M melanoma cells = settings: read-out: Log10 GI50 (converted)
UACC-62 melanoma cells = settings: Homo sapiens, read-out: Log10 GI50 (converted)
[10] = tested on: CAKI-1 renal cancer cells; settings: Homo sapiens; CAKI-1, renal cancer; read-out: Log10 GI50 (converted)
[11] = tested on: NCI-H23 lung cancer cells; settings: read-out: Log10 GI50 (converted)
M-14 melanoma cells = settings: M14, read-out: Log10 GI50 (converted)
SK-MEL-2 melanoma cells = settings: read-out: Log10 GI50 (converted)
[12] = tested on: HCT-116 colon cancer cells; settings: Homo sapiens, read-out: Log10 GI50 (converted)
[13] = tested on: IGROV-1 ovarian cancer cells; settings: Homo sapiens, read-out: Log10 GI50 (converted)
SNB-19 CNS cancer cells = settings: Homo sapiens, read-out: Log10 GI50 (converted)
KM12 colon cancer cells = settings: Homo sapiens, read-out: Log10 GI50 (converted)
Text: (§4) The cytotoxic activity of the present polythiophene compounds have been measured utilizing three different assays or screens. The first screen measures the cytotoxicity against a panel of sixty different human tumor cell lines. This assay provides data regarding the general cytotoxicity of an individual compound. In particular this type of assay is useful in identifying compounds which have enhanced cytotoxic activity against slow growing tumors as compared to faster growing tumor cells such as leukemia tumor cell lines. The identification of such compounds is critical since previously identified antitumor agents have low cytotoxic activity against slower growing tumors. […] The specificity of a cytotoxic compound for tumor cell lines relative to normal cells is an important characteristic of an effective antitumor agent.
as §2, §3

[14] = tested on: MDA-MB-231/ATCC breast cancer cells; settings: read-out: Log10 GI50 (converted)
Text: as §4, §2, §3

[15] = tested on: DU-145 prostate cancer cells; settings: read-out: Log10 GI50 (converted)
Text: as §4, §2, §3

[16] = tested on: MCF7/ADR-RES breast cancer cells; settings: read-out: Log10 GI50 (converted)
Text: as §4, §2, §3

MCF7 breast cancer cells = settings: read-out: Log10 GI50 (converted)
Text: as §4, §2, §3

[17] = tested on: MDA-N breast cancer cells; settings: read-out: Log10 GI50 (converted)
Text: as §4, §2, §3

SK-MEL-5 melanoma cells = settings: read-out: Log10 GI50 (converted)
Text: as §4, §2, §3

[18] = tested on: HS 578T breast cancer cells; settings: read-out: Log10 GI50 (converted)
Text: as §4, §2, §3

[19] = tested on: PC-3 prostate cancer cells; settings: read-out: Log10 GI50 (converted)
Text: as §4, §2, §3

SK-MEL-28 melanoma cells = settings: read-out: Log10 GI50 (converted)
Text: as §4, §2, §3

[20] = tested on: BT-549 breast cancer cells; settings: read-out: Log10 GI50 (converted)
Text: as §4, §2, §3

HOP-92 lung cancer cells = settings: Homo sapiens, read-out: Log10 GI50 (converted)
Text: as §4, §2, §3

SF-539 CNS cancer cells = settings: read-out: Log10 GI50 (converted)
Text: as §4, §2, §3

[21] = tested on: OVCAR-4 ovarian cancer cells; settings: Homo sapiens, read-out: Log10 GI50 (converted)
Text: as §4, §2, §3

[22] = tested on: MDA-MB-435 breast cancer cells; settings: read-out: Log10 GI50 (converted)
Text: as §4, §2, §3

TK-10 renal cancer cells = settings: Homo sapiens, read-out: Log10 GI50 (converted)
[23] = tested on: NCI-H322M lung cancer cells; settings: Homo sapiens, read-out: Log10 GI50 (converted)
[24] = tested on: OVCAR-3 ovarian cancer cells; settings: Homo sapiens; OVCAR-3, ovarian cancer; read-out: Log10 GI50 (converted)
SF-268 CNS cancer cells = settings: read-out: Log10 GI50 (converted)
HOP-62 lung cancer cells = settings: Homo sapiens, read-out: Log10 GI50 (converted)
786-0 renal cancer cells = settings: read-out: Log10 GI50 (converted)
[25] = tested on: SW-620 colon cancer cells; settings: Homo sapiens, read-out: Log10 GI50 (converted)
Protocol: as §1, §2, §3

## OCc1csc(-c2ccc(-c3ccc(CO)s3)s2)c1 [drawing 38]
[1]; COLO-205, colon cancer, read-out: Log10 GI50 (converted)
  GI50: 0.191 µM
U251 CNS cancer cells
  GI50: 5.62 µM
A-498 renal cancer cells
  GI50: 0.0158 µM
[2]
  GI50: 0.224 µM
ACHN renal cancer cells
  GI50: > 10 µM
[3]
  GI50: 0.126 µM
SNB-75 CNS cancer cells
  GI50: 2 µM
HT29 colon cancer cells
  GI50: 0.234 µM
[4]
  GI50: > 10 µM
SF-295 CNS cancer cells
  GI50: > 10 µM
LOX IMVI melanoma cells
  GI50: > 10 µM
[5]
  GI50: 0.0389 µM
[6]
  GI50: > 10 µM
[7]
  GI50: 5.89 µM
[8]
  GI50: > 10 µM
UACC-257 melanoma cells
  GI50: 0.038 µM
[9]
  GI50: 0.0141 µM
MALME-3M melanoma cells
  GI50: > 10 µM
UACC-62 melanoma cells
  GI50: 0.182 µM
[10]
  GI50: 0.0251 µM
[11]
  GI50: > 10 µM
M-14 melanoma cells
  GI50: > 10 µM
SK-MEL-2 melanoma cells
  GI50: > 10 µM
[12]
  GI50: 0.107 µM
[13]
  GI50: 0.145 µM
SNB-19 CNS cancer cells
  GI50: > 10 µM
KM12 colon cancer cells
  GI50: > 10 µM
[14]
  GI50: > 10 µM
[15]
  GI50: > 10 µM
[16]
  GI50: > 10 µM
MCF7 breast cancer cells
  GI50: 0.138 µM
[17]
  GI50: 9.55 µM
SK-MEL-5 melanoma cells
  GI50: > 10 µM
[18]
  GI50: 7.76 µM
[19]
  GI50: > 10 µM
SK-MEL-28 melanoma cells
  GI50: > 10 µM
[20]
  GI50: > 10 µM
HOP-92 lung cancer cells
  GI50: 9.33 µM
SF-539 CNS cancer cells
  GI50: > 10 µM
[21]
  GI50: 0.302 µM
[22]
  GI50: 4.37 µM
TK-10 renal cancer cells
  GI50: 0.0794 µM
[23]
  GI50: 4.27 µM
[24]
  GI50: 0.0692 µM
SF-268 CNS cancer cells
  GI50: > 10 µM

## OCc1ccc(-c2ccc(-c3ccsc3)s2)s1 [drawing 37]
[1]; COLO 205, read-out: Log10 GI50 (converted)
  GI50: 0.912 µM
U251 CNS cancer cells
  GI50: 10.7 µM
A-498 renal cancer cells
  GI50: 0.115 µM
[2]
  GI50: 0.339 µM
HOP-62 lung cancer cells
  GI50: 20.4 µM
[3]
  GI50: 0.417 µM
SNB-75 CNS cancer cells
  GI50: 30.9 µM
HT29 colon cancer cells
  GI50: 13.8 µM
[4]
  GI50: 20.4 µM
SF-295 CNS cancer cells
  GI50: 35.5 µM
[5]
  GI50: 25.1 µM
[6]
  GI50: 58.9 µM
786-0 renal cancer cells
  GI50: 57.5 µM
[7]
  GI50: 0.977 µM
[8]
  GI50: 57.5 µM
[25]
  GI50: 47.9 µM
UACC-257 melanoma cells
  GI50: 0.191 µM
MALME-3M melanoma cells
  GI50: 38.9 µM
[10]
  GI50: 0.0229 µM
[11]
  GI50: 24 µM
M-14 melanoma cells
  GI50: 42.7 µM
[12]
  GI50: 0.363 µM
[13]
  GI50: 0.219 µM
SNB-19 CNS cancer cells
  GI50: 33.1 µM
KM12 colon cancer cells
  GI50: 83.2 µM
[14]
  GI50: 28.2 µM
[15]
  GI50: 66.1 µM
MCF7 breast cancer cells
  GI50: 0.257 µM
[17]
  GI50: 0.501 µM
SK-MEL-5 melanoma cells
  GI50: 41.7 µM
[19]
  GI50: 51.3 µM
SK-MEL-28 melanoma cells
  GI50: 36.3 µM
HOP-92 lung cancer cells
  GI50: 38.9 µM
[21]
  GI50: 25.1 µM
TK-10 renal cancer cells
  GI50: 0.204 µM
[23]
  GI50: 16.2 µM
[24]
  GI50: 0.158 µM
SF-268 CNS cancer cells
  GI50: 53.7 µM

— patent publication US5741811A, “Polythiophene anti-tumor agents” (Purdue Research Foundation, priority 1996, dated 1998)
